From patent publication US9663479B2, “γ-aminobutyric acid (GABA) analogues for the treatment of pain and other disorders” (Novassay S.A., priority 2013, dated 2017)

Tested on: human recombinant CACNA2D1 (Voltage-Gated Calcium Channel subunit α2δ-1 fragment)
Assay: Biacore surface plasmon resonance kinetic binding analysis on immobilised CACNA2D1
Conditions: SPR, CM5 chip, BSA reference subtracted
From the text: Method for determining kinetic binding parameters (association and dissociation rates) and affinities (KD) of GABA analogues to α2δ-1subunits.
It is well known in the art that binding affinity can be expressed as KD or equilibrium dissociation constant, whereby increasing binding affinity correlates with decreasing KD, which can be calculated from kinetic binding constants. Kinetic binding analysis of GABA analogues to α2δ-1subunits can be determined by surface plasmon resonance technology applied in Biacore™ SPR instruments (Biacore, GE Healthcare, Uppsala). Kinetic association rates (ka; k-on) and dissociation rates (kd; k-off) are obtained. Equilibrium dissociation constant (KD; affinity) values are calculated as k-off/k-on.
This example discloses that the GABA analogues ((1R,5S,6S)-6-((1H-tetrazol-5-yl)methyl)-3-ethylbicyclo[3.2.0]hept-3-en-6-yl)methanamine (“Test Compound”: prepared as described in Example 2) and (1R,5S,6S)-6-(aminomethyl)-3-ethylbicyclo[3.2.0]hept-3-en-6-yl]acetic acid (“Reference Compound”: prepared as described in WO 2010/079668 and US 2012/0071685A1) are capable of binding to a recombinant fragment of human Voltage-Gated Calcium Channel subunit (α2δ-1, CACNA2D1). […]

Compound	Specific binding to human CACNA2D1 recombinant protein
CCC1=C[C@@H]2[C@H](C1)C[C@]2(CN)Cc1nnn[nH]1 [Test Compound, ((1R,5S,6S)-6-((1H-tetrazol-5-yl)methyl)-3-ethylbicyclo[3.2.0]hept-3-en-6-yl)methanamine]	able to specifically bind
CCC1=C[C@@H]2[C@H](C1)C[C@]2(CN)CC(=O)O [Reference Compound, reference compound]	able to specifically bind

Biological target: Human Cav1.2/β3/α2δ-1 Calcium Channel Membranes (α2δ-1 subunit) (Homo sapiens (Human), UniProt P54289)
Sequence (P54289 25-956): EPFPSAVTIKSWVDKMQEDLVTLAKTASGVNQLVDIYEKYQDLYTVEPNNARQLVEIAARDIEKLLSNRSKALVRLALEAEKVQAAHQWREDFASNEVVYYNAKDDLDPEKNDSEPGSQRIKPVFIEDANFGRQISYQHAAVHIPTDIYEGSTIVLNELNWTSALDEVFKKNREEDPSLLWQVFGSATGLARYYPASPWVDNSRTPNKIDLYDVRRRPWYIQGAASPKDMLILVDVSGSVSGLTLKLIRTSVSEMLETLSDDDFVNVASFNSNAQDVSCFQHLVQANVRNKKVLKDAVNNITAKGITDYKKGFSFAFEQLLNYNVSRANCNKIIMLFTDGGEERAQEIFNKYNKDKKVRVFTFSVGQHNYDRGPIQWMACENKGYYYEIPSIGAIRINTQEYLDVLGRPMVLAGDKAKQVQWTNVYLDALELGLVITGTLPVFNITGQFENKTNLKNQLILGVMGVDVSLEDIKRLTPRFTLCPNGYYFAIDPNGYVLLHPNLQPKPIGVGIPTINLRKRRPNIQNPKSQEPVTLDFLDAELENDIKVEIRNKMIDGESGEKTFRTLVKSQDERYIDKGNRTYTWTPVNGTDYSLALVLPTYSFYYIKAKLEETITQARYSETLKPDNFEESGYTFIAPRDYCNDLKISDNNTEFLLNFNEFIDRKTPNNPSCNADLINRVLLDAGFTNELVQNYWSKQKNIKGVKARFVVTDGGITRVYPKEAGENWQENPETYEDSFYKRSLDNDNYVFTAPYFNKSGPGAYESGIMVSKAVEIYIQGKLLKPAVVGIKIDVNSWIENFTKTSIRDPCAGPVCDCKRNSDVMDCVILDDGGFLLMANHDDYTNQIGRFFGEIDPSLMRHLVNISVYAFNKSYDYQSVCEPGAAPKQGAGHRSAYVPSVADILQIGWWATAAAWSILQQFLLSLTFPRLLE
Sequence (P54289 957-1103): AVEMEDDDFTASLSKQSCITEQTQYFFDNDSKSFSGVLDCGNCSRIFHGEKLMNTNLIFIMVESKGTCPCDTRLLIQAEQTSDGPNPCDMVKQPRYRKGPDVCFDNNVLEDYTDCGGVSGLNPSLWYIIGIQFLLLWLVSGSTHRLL
Sequence (Q13936 whole entry partner): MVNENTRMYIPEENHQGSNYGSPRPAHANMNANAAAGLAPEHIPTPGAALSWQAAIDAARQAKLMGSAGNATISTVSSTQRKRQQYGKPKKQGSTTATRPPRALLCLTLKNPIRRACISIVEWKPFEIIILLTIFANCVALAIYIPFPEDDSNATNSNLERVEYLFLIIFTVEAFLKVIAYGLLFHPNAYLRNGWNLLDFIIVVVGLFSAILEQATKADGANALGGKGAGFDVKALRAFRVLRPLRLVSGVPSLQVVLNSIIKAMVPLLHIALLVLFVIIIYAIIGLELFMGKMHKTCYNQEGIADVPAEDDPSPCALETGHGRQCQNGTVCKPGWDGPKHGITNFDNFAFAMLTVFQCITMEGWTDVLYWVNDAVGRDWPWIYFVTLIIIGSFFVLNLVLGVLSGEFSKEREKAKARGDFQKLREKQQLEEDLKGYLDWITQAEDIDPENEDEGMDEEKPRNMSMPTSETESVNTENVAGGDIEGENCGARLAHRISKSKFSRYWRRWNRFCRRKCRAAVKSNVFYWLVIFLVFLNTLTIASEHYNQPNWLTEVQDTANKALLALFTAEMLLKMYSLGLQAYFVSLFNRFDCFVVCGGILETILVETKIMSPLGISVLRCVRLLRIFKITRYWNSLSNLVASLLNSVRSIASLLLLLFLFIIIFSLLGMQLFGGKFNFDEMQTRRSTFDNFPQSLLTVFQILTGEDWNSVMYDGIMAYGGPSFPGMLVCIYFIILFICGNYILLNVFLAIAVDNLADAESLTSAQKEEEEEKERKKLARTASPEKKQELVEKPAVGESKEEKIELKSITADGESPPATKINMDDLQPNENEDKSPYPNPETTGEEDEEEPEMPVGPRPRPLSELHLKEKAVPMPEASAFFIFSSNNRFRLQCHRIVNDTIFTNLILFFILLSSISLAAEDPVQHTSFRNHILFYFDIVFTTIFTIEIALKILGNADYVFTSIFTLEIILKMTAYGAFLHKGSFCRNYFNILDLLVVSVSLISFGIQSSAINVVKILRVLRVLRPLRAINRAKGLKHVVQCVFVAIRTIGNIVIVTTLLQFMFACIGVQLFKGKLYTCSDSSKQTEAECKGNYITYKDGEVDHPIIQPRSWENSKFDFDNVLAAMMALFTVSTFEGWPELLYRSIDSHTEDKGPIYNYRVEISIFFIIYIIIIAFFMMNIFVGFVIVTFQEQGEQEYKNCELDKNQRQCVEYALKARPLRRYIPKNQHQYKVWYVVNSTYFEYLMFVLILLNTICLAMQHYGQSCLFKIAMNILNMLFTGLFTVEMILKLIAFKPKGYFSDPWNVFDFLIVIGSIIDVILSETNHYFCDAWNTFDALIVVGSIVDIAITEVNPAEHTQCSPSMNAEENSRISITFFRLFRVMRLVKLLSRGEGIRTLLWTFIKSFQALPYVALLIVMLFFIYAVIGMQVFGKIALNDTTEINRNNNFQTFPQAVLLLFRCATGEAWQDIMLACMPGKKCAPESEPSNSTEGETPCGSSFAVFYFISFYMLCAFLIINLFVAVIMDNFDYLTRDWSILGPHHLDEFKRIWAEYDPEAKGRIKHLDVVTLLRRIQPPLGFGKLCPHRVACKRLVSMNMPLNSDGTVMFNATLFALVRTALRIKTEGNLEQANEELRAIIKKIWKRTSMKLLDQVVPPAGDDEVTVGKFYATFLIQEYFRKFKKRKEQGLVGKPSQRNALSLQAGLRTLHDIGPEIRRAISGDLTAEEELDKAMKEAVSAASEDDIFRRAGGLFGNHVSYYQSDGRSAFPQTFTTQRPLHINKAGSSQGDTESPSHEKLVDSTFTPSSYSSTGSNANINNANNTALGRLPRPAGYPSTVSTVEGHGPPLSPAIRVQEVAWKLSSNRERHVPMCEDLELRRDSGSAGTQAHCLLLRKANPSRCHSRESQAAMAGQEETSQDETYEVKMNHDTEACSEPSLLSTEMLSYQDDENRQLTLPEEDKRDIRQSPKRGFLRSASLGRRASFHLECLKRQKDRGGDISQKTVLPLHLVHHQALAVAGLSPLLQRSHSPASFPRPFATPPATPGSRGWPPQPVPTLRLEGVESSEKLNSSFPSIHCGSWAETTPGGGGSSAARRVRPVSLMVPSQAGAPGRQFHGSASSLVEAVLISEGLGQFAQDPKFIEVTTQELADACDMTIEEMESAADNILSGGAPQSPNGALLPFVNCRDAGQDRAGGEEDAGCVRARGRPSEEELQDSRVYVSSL
Sequence (P54284 whole entry partner): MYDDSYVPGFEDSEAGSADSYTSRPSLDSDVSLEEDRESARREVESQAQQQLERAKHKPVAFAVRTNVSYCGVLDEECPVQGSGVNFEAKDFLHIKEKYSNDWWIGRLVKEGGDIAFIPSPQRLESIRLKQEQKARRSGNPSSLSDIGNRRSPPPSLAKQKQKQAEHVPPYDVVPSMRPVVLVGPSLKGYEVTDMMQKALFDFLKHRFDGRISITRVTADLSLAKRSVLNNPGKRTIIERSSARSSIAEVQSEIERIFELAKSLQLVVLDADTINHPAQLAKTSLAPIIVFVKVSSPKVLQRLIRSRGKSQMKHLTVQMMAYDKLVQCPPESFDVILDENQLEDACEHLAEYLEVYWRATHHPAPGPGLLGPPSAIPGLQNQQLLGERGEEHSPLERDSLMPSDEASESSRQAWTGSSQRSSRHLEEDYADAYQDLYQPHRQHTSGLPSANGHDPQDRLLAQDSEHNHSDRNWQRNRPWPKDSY
Assay: [3H]gabapentin scintillation proximity binding assay on calcium channel α2δ-1 subunit membranes
Conditions: not given
Experimental: This test was carried out in the following way.
Calcium Channel α2δ-1 Subunit Binding Assay
Human Cav1.2/β3/α2δ-1 Calcium Channel Membranes (Chantest) were thawed on ice, aliquotted and stored at −80° C. for subsequent use. Membranes were diluted to 200 μg/ml (3 μg/well final assay concentration (FAC)) in assay buffer (10 mM HEPES (Sigma), (pH7.4)). The [^3H]GBP (Perkin Elmer) stock solution was stored at −20° C. [^3H]GBP was diluted to 40 nM (10 nM FAC) in assay buffer. SPA beads (Perkin Elmer) were re-suspended at 100 mg/ml in 10 mM HEPES (pH 7.4). Beads were diluted to 40 mg/ml (0.6 mg/well FAC) in assay buffer. Nonspecific binding (NSB) was generated using an excess of pregabalin (Tocris). Pregabalin was solubilized in Milli-Q H2O at 10 mM. 10 mM pregabalin was diluted to 400 μM (100 μM FAC) in assay buffer.
Compounds were diluted to […] then half log diluted. These were then diluted 1:100 in assay buffer to a 4× assay concentration (1 μM FAC top dilution).
SPA beads 15 μl; membranes 15 μl; pregabalin or assay buffer/test compound 15 μl and [^3H]GBP 15 μl were added to a white 96 well isoplate, (Perkin Elmer). The assay plate was sealed and mixed for 10 s on a plate shaker then placed into a plate rack and slotted into the reader stacker.
The NSB values obtained by adding 100 μM pregabalin were subtracted from values obtained for compounds to generate a specific binding value. Specific binding in counts per minute (cpm) were plotted against compound concentration (M) and fitted using a 4 parameter logistic equation.

Compound	IC50 [nM]
CCC1=CC2C(C1)C[C@]2(CN)Cc1nn[nH]n1 (single isomer, unassigned) [Formula 2 peak 2 (chiral)]	2.1
CC(C)CC(CN)CC(=O)O (stereo not drawn) [Pregabalin, reference compound]	23
CCNC[C@]1(Cc2nnn[nH]2)C[C@H]2CC(CC)=C[C@H]21 (racemic) [Formula 1 (Racemic), Racemic N-(((1R,5S,6S)-6-((1H-tetrazol-5-yl)methyl)-3-ethylbicyclo[3.2.0]hept-3-en-6-yl)methyl)ethanamine]	≥ 500
CCC1=C[C@@H]2[C@H](C1)C[C@]2(CN)Cc1nc(=O)o[nH]1 (racemic) [Formula 3 (Racemic), Racemic 3-(((1R,5S,6S)-6-(aminomethyl)-3-ethylbicyclo[3.2.0]hept-3-en-6-yl)methyl)-1,2,4-oxadiazol-5(4H)-one]	19
CCC1=CC2C(C1)C[C@@]2(CN)Cc1nn[nH]n1 (single isomer, unassigned) [Formula 2 peak 1 (Chiral)]	165
CCC1=C[C@@H]2[C@H](C1)C[C@]2(CN)Cc1nn[nH]n1 (racemic) [Formula 2 (Racemic), Racemic ((1R,5S,6S)-6-((1H-tetrazol-5-yl)methyl)-3-ethylbicyclo[3.2.0]hept-3-en-6-yl)methanamine]	4.2

Biological target: α2δ-1 sub-unit (Homo sapiens (Human), UniProt P54289)
Sequence (P54289 whole entry, looked up): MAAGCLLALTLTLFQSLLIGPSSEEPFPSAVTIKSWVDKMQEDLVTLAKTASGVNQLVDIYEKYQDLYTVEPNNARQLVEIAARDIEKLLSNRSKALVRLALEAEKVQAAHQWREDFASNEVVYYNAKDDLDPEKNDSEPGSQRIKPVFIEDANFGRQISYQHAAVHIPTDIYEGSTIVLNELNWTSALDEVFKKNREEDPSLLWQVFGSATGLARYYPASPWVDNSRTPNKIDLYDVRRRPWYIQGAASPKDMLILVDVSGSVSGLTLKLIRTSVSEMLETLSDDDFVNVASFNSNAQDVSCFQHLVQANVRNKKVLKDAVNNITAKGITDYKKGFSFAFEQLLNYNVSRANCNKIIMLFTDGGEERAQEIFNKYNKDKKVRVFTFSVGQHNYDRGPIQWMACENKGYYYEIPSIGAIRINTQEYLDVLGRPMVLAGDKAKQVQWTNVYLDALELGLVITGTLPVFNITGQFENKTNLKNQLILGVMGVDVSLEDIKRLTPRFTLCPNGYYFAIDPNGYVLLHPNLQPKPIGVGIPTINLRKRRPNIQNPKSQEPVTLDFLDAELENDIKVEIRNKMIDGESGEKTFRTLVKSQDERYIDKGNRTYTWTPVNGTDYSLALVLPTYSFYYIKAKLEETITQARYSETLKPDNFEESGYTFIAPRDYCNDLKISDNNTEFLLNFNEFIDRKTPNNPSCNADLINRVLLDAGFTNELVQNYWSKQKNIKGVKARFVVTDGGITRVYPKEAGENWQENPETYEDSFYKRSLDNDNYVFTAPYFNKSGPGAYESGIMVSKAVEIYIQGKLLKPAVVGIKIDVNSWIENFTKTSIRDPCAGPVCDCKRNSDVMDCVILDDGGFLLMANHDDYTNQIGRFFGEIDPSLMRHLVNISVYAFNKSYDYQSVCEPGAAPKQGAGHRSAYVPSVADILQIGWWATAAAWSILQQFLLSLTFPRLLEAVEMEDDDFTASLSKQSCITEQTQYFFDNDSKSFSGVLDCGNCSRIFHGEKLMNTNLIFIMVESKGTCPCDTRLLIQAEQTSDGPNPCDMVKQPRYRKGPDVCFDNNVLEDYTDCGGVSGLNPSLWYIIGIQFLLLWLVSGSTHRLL
Assay: not given
Conditions: read-out: Literature IC50 nM; binding to α2δ-1 sub-unit, literature value; cited from earlier work

Compound	IC50 [nM]
CC(C)CC(CN)CC(=O)O (stereo not drawn) [Pregabalin, reference compound]	80
